The numbers were not newly measured in patent US20220378704A1, “PROCESS FOR THE PREPARATION OF A NANOPARTICULATE ACTIVE INGREDIENT” (Bayer Aktiengesellschaft, priority 2019, published 2022), which cites them from elsewhere.

The structures appear in SMILES notation.

The conditions of series [1]: within 5 min.

As to `C#C[C@]1(O)CC[C@H]2[C@@H]3CCC4=Cc5oncc5C[C@]4(C)[C@H]3CC[C@@]21C` [raw danazol particles, danazol], the specific surface area (before / after LASP process in the MCR) was 0.66 m^2/g. Further, the mean particle size (before LASP process) is recorded as 55 μm. Also, the dissolution rate in series [1] is 35%.
